Measured values: article PMC9127232, “Wound Healing Properties of Jasione montana Extracts and Their Main Secondary Metabolites” (Frontiers in Pharmacology, 2022)
Several values for one entry are separate records, joined by “and”; a condition that tells them apart may be missing. Equal values may be shown once. Entries after “also recorded” stand apart in the source; their conditions may differ.

Key:
[1] = tested on: IL-8 in fibroblast cells (PCS-201-012); test: Cytometric Bead Array, IL-8 secretion; type: cell-based, human; conditions: 24 h
Method: (§1) The normal human dermal fibroblast cell line (PCS-201-012) was cultured in DMEM blended with 10% fetal bovine serum (FBS), 10 μg/mL streptomycin, and 10 units/mol penicillin. The cells were cultured in 5% CO2 and fully humidified at 37°C. All tested compounds were dissolved at a final vehicle (DMSO) concentration of not more than 0.5% (v/v). Cells cultured in drug-free DMEM were used as controls, and cells treated with DMSO alone were used as solvent controls. All extracts (JM1–JM6) and the main components of the tested extracts (9, 12, and 22) were analyzed at the following concentrations: 10, 25, 50, 100, 200, and 300 μg/mL. The effect of the tested extracts and fractions (JM1–JM6) as well as 9, 12, and 22 on cytokine (IL-1β, IL-6 IL-8, IL-10, IL-12p70 and TNF) secretion was determined using the Cytometric Bead Array (CBA) Human Inflammatory Cytokine Kit according to the manufacturer’s protocols. After 24 h of incubation with the test samples at concentrations of 10, 25, 50, 100, 200, and 300 μg/mL, fibroblast cells were washed with PBS, trypsinized, resuspended in DMEM and centrifuged (1,200 rpm, 10 min, 4°C). The supernatant was then replaced with 50 μL of assay diluent with the addition of 50 μL of assay beads and 50 μL of PE-labeled antibodies (detection reagent) from the human inflammatory cytokine kit. Incubation was performed for 3 h at room temperature without daylight, after which the fibroblast cells were washed and centrifuged (1,200 rpm, 5 min, 4°C). The cell pellet was resuspended in 300 μL of wash buffer and then immediately subjected to analysis by FCAP Array v3 software on a BD FACSCanto II flow cytometer (both from BD Biosciences Systems, San Jose, CA, United States) calibrated with BD Cytometer Setup and Tracking beads (BD Biosciences, San Diego, CA, United States).

[2] = tested on: IL-6 in fibroblast cells (PCS-201-012); test: Cytometric Bead Array, IL-6 secretion; type: cell-based, human; conditions: 24 h
Method: as §1

[3] = tested on: IL-1β in fibroblast cells (PCS-201-012); test: Cytometric Bead Array, IL-1β secretion; type: cell-based, human; conditions: for IL-1β: BSR = below the standard range (lower than detection limit)
Method: as §1

[4] = tested on: collagen type I in fibroblast cells (PCS-201-012); test: Collagen type I biosynthesis by flow cytometry; type: cell-based, human; conditions: for collagen type I content, median fluorescence intensity (MFI): 24 h
Method: The normal human dermal fibroblast cell line (PCS-201-012) was cultured in DMEM blended with 10% fetal bovine serum (FBS), 10 μg/mL streptomycin, and 10 units/mol penicillin. The cells were cultured in 5% CO2 and fully humidified at 37°C. All tested compounds were dissolved at a final vehicle (DMSO) concentration of not more than 0.5% (v/v). Cells cultured in drug-free DMEM were used as controls, and cells treated with DMSO alone were used as solvent controls. All extracts (JM1–JM6) and the main components of the tested extracts (9, 12, and 22) were analyzed at the following concentrations: 10, 25, 50, 100, 200, and 300 μg/mL. The effect of the tested extracts and fractions (JM1–JM6), as well as their main compounds (9, 12, and 22) on collagen type I biosynthesis was determined using a method of cytometric staining of the surface anti-collagen type I according to the manufacturer’s protocols. Fibroblasts were incubated for 24 h at 37°C with the test samples at concentrations of 10, 25, 50, 100, 200, and 300 μg/mL. Allantoin (50 μg/mL) was used as a positive control. After incubation, fibroblasts were washed with PBS, trypsinized, resuspended in DMEM and centrifuged (1,200 rpm, 10 min, 4°C). The supernatant was removed, and the cells were washed with 2 mL of stain buffer. Then, the cells were incubated for 30 min on ice with 100 µL of stain buffer and 1 µL of antibody. After complete incubation, 2 mL of stain buffer was added. After consecutive centrifugation (1,200 rpm, 10 min, 4°C), the supernatant was removed, the cells were resuspended in 300 µL of buffer and then immediately subjected to analysis on a flow cytometer (BD FACSCanto II flow cytometer, San Jose, CA, United States) calibrated with BD Cytometer Setup and Tracking beads (BD Biosciences, San Diego, CA, United States). The median fluorescence intensity was calculated using FACSDiva software (BD Biosciences Systems, San Jose, CA, United States) and analyzed by FCS Express 7 software (DeNovo Software, Pasadena, CA, United States).

[5] = DPPH radical-scavenging assay; conditions: for DPPH, IC50: 30 min, absorbance 517 nm, mean ± SD; for antiradical potential in the DPPH method compared with Trolox: vs positive control Trolox IC50 58.6 ± 0.1 μg/mL
Method: All extracts (JM1–JM6) and main components of the tested extracts (9, 12, and 22) were isolated and identified as previously described ([Juszczak et al., 2021]). A total of 130 μL of sample solution at various concentrations was mixed with 70 μL of DPPH (0.2 mg/mL) in a 96-well plate. Then, the reaction mixture was incubated in the dark at room temperature. After 30 min, the absorbance was recorded at 517 nm using a microplate reader (BioTek Instruments microplate spectrophotometer EPOCH 2, Oxfordshire, United Kingdom). A blank solution was prepared by mixing methanol and DPPH solution. Trolox was used as a positive control. The experiment was performed in triplicate. RSA(%)=(C-S)/C×100% where C is the negative control and S is the sample. Concentration of the tested samples, which scavenges 50% of free radicals present in the solution (IC50), was calculated.

[6] = tested on: normal human dermal fibroblast cell line (PCS-201-012); test: Scratch proliferation and migration assay; type: cell-based; conditions: 24 h; for cell migration into the injured area: up to 100 μg/mL
Method: The normal human dermal fibroblast cell line (PCS-201-012) was cultured in DMEM blended with 10% fetal bovine serum (FBS), 10 μg/mL streptomycin, and 10 units/mol penicillin. The cells were cultured in 5% CO2 and fully humidified at 37°C. All tested compounds were dissolved at a final vehicle (DMSO) concentration of not more than 0.5% (v/v). Cells cultured in drug-free DMEM were used as controls, and cells treated with DMSO alone were used as solvent controls. All extracts (JM1-JM6) and the main components of the tested extracts (9, 12, and 22) were analyzed at the following concentrations: 10, 25, 50, 100, 200, and 300 μg/mL. The in vitro wound healing activity of J. montana extracts and isolated compounds was determined by a scratch assay, which is a model of a wound in which monolayer skin cells, including fibroblasts, react to the disruption of contact between cells and stimulate proliferation and migration by modulating the concentration of growth factors and cytokines at the edge wounds ([Liang et al., 2007]). For this purpose, fibroblast cells were seeded at a density of 2.5 × 10^5 in 6-well cell culture dishes and incubated for 24 h at 37°C. After incubation, a linear scratch was made with a universal sterile 200 μL pipette tip. Cells were incubated with the tested extracts (JM1-JM6) and compounds (9, 12, and 22) at concentrations of 10, 25, 50, 100, 200 and 300 μg/mL for 24 h at 37°C. Allantoin, a plant-derived commercialized drug, was used as the positive control at a concentration of 50 μg/mL to judge the rate of cell migration ([[…] et al., 2020]). After incubation, the migrated cells were washed twice with PBS and observed under a phase contrast microscope. The progress of migration, proliferation and closing of the wound before and after treatment with the tested samples was monitored by imaging with a phase contrast microscope (Nikon Eclipse Ti, Tokyo, Japan) at × 100 magnification and NIS-Elements 3.0 imaging software (Nikon Instruments Inc., Melville, NY, United States).

[7] = Ferric reducing antioxidant potential (FRAP); conditions: for FRAP: 1 h at 37°C, 594 nm
Method: Determination of the ferric reducing antioxidant potential (FRAP) was performed using a ferric reducing antioxidant power assay kit. Ten microliters of each sample (JM1–JM6, 9, 12, 22) was mixed with 190 µL of supplied reaction mix (FRAP assay buffer, FeCl3 solution, FRAP probe). The absorbance was measured after 1 h of incubation at 37°C at 594 nm using a microplate reader. A blank solution contained 10 µL of MeOH instead of extract/compound solution. For further calculations, the ferrous standard curve was evaluated. The values are given as mM ferrous equivalents. All tests were executed in triplicate.

[8] = biological target: porcine pancreatic elastase (Sus scrofa, UniProt P00772); test: Elastase inhibitory activity; type: biochemical; conditions: for anti-elastase activity (in words): extracts 100–600 μg/mL, compounds 10–200 μg/mL
Method: The measurement of elastase inhibition was modified slightly according to a previous method ([Wittenauer et al., 2015]). The procedure was performed in 100 mM Tris buffer (pH = 8.0). Briefly, 100 µL of extracts (JM1–JM6) (100–600 μg/mL) or compounds (9, 12, and 22) (10–200 μg/mL) and 100 µL of Tris buffer were mixed with 25 µL of porcine pancreatic elastase solution (0.05 mg/mL). Then, the mixtures were preincubated at 25°C for 5 min, and 70 µL of AAAPVN (0.4 mg/mL) was added. After another 15 min of incubation, the release of p-nitroaniline was monitored at 410 nm using a microplate reader. A blank solution was prepared by using buffer instead of sample solution. […] The calculations were performed as follows: ElInh(% )=(C-S)/C×100% where C is the negative control and S is the sample.

dermal fibroblast cells = tested on: dermal fibroblast cells; parameters: method as in Juszczak et al., 2021; conditions: ref Juszczak et al., 2021; cited from earlier work

porcine pancreatic elastase, sequence (P00772 27-266): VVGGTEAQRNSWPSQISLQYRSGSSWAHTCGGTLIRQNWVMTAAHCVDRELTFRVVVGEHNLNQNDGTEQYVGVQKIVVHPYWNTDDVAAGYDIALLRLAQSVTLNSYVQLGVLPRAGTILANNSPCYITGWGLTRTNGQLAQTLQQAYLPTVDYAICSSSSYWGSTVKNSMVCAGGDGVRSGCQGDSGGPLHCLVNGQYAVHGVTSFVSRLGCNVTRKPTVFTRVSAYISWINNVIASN

SMILES	IL-8 levels (in words) ([1]; 100–300 μg/mL)	concentration at which the highest increase in IL-6 secretion occurred [2]	DPPH, IC50 [5]	antiradical potential in the DPPH method compared with Trolox [5]	cell migration into the injured area [6]	collagen type I content, median fluorescence intensity (MFI) ([4]; 300 μg/mL, control 1,507 ± 9.2)	FRAP [7]	anti-elastase activity (in words) [8]	cytotoxicity on dermal fibroblast cells (in words) (dermal fibroblast cells)	FRAP / reducing power [7]	further results
NC(=O)NC1NC(=O)NC1=O (centres unmarked) [allantoin, reference compound]											IL-8 expression (in words) ([1]; 50 μg/mL, positive control): decrease in IL-8 expression; IL-6 (in words) ([2]; 50 μg/mL, positive control): upregulation of IL-6; IL-1β levels (in words) ([3]; 50 μg/mL, 24 h, positive control): stimulation of proinflammatory IL-1β levels; collagen type I content, median fluorescence intensity (MFI) ([4]; 50 μg/mL, control 1822 ± 62.2): 1,494 ± 2.8
O=c1cc(-c2ccc(O)c(O)c2)oc2cc(O[C@@H]3O[C@H](CO)[C@@H](O)[C@H](O)[C@H]3O[C@@H]3OC[C@@H](O)[C@H](O)[C@H]3O)cc(O)c12 [Compound 9, luteolin 7-O-β-D-xylosyl-(1-2)-β-D-glucoside]	reduced IL-8 levels	100 µg/mL	20.34 ± 0.8 µg/mL	stronger antiradical potential	significantly increased	1763 ± 58	60.59 ± 0.46 mM Fe^2+eq/mL	no significant inhibitory activity; also recorded: not active			IL-8 levels (in words) ([1]; 10–100 μg/mL): significant increase; effectiveness in the scratch test ([6]; 50 μg/mL, comparable with allantoin 50 μg/mL): most effective
O=c1cc(-c2ccc(O)c(O)c2)oc2cc(O)cc(O)c12 [Compound 22, 5,7,3',4'-tetrahydroxyflavone]			10.6 ± 0.7 µg/mL and 10.65 ± 0.7 µg/mL	stronger antiradical potential			51.81 ± 0.78 mM Fe^2+eq/mL		toxicity at the higher concentrations tested	60.59 ± 0.5 mM Fe^2+/mL	IL-8 level ([1]; 300 μg/mL, control 8,396.8 ± 2,771.1 pg/mL): 60.8 ± 8 pg/mL; IL-8 expression (in words) ([1]; 10–300 μg/mL): decrease in its expression was most pronounced; IL-6 expression levels (in words) ([2]; 10–300 μg/mL, vs untreated control): dose-dependent decrease; stimulation of fibroblast migration ([6]; only at 10 μg/mL): capable of stimulating cells only at a low concentration; IL-1β level ([3]; 100 μg/mL, 24 h, control 13.4 ± 5.6 pg/mL): 1.7 ± 1.1 pg/mL; IL-1β ([3]; 200 μg/mL): BSR; IL-1β ([3]; 300 μg/mL): BSR; IL-1β expression (in words) ([3]; 200–300 μg/mL, 24 h): below the sensitivity of the method; secretion of IL-1β (in words) ([3]; all tested concentrations 10–300 μg/mL, 24 h): highest decrease; collagen content in fibroblast cells (in words) ([4]; 10 μg/mL): decrease in collagen content; IC50 ([8]; Tris buffer pH 8.0, substrate AAAPVN, 410 nm): 139 µM
O=c1cc(-c2ccc(O)c(O)c2)oc2cc(O[C@@H]3O[C@H](CO)[C@@H](O)[C@H](O)[C@H]3O)cc(O)c12 [Compound 12, luteolin 7-O-β-D-glucoside]	reduced IL-8 levels	100 µg/mL	16.6 ± 0.7 µg/mL and 16.59 ± 0.7 µg/mL	stronger antiradical potential	significantly increased	1717 ± 10.6	51.88 ± 0.53 mM Fe^2+eq/mL	no significant inhibitory activity; also recorded: not active	did not show strong cytotoxicity	51.9 ± 0.5 mM Fe^2+/mL	
Cc1c(C)c2c(c(C)c1O)CCC(C)(C(=O)O)O2 (centres unmarked) [Trolox, reference compound]			58.6 ± 0.1 µg/mL								
